What is called pIC50 is the IC50 on a negative log10 scale, so that one unit is a factor of ten.

What all share (type): biochemical
Assay [1] addresses T1, PP2A (Homo sapiens, UniProt P67775).
T1 construct: made in house
Nature of the assay: Phosphatase activity of PP2A using phosphorylase a as substrate. The following applies: un-methylated PP2A, protein substrate phosphorylase a, absence of ME and MT. The method, then:
After the reaction, proteins were precipitated by 50% (NH4)2SO4 (final concentration) twice, and collected by centrifugation. The pellet was re-dissolved and dialyzed in a buffer containing 50 mM Tris-HCl (pH6.9) and ImM DTT for 2×2 L at 4° C. overnight. Phosphorylase a (phospho-phosphorylase b) crystallized during the dialysis. The dialysate was centrifuged 14,000 r.p.m at 4° C. for 30 minutes, the supernatant was removed and purified ^32P-labelled phosphorylase a was re-dissolved in +50% glycerol, and stored at −20° C.
To measure PP2A's phosphatase activity, PP2A (5-20 nM) was incubated with phosphorylase a (5-10 μM) at 37° C. 10% TCA (final concentration) and was added to the reaction to precipitate proteins. Supernatant that contains free ^32P-phosphate group was added into scintillation counting solution (Ecoscint, National Diagnostics), and counted by scintillation counter (LS 6000SE, Beckman).

Assay [2] addresses T1, PP2A. Nature of the assay: Phosphatase activity of PP2A using pNPP as substrate. The following applies: un-methylated PP2A, non-protein substrate pNPP, absence of ME and MT. Here is the method: PP2A (10-200 nM) and pNPP (5-10 mM, Sigma) were mixed into 96-well plate (Fisher Scientific Inc.) in 50 μL of the buffer required. Reactions were performed at room temperature, and fully stopped by adding equal volume of 0.1 M EDTA. Production of p-nitrophenol […] was quantified by absorbance of reaction mixtures at 405 nm using the VMax® microplate reader (Molecular Devices).

Assay [3] concerns the target T2, protein phosphatase specific protein methylesterase (MEase) (Homo sapiens, UniProt Q9Y570).
T2 construct: made in house
T2 sequence (Q9Y570 1-386): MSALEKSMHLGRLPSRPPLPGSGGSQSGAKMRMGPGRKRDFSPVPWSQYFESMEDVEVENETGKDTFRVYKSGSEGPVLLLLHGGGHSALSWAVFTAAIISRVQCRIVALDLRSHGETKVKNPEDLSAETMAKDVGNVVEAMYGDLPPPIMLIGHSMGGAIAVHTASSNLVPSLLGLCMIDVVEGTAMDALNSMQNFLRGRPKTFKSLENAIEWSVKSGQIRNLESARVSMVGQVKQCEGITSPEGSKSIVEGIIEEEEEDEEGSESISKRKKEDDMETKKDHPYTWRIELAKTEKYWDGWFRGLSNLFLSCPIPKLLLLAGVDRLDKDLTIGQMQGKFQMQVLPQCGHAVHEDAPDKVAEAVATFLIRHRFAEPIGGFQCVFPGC
Nature of the assay: PP2A demethylation with [3H]-SAM and purified proteins (methylesterase activity). The method, then:
PP2A (methylated and unmethylated) were eluted with 1.6 mL of Buffer A containing 350 mM NaCl. Fractions (0.2 mL each) were collected and the radioactivity in each fraction was measured using the scintillation counter (LS 6000SE, Beckman). Fractions with highest radioactivity were containing purified methylated PP2A were pooled with a total volume of 0.6 mL-0.8 mL. Purified methylated PP2A (50 nM-100 nM) was incubated with MEase (5 nM-20 nM) in 20 μl-50 μl reaction at room temperature for 30 minutes. The reaction was terminated by adding TCA (2 μl-6 μl) to a final concentration of 10%. Released [^3H]-methanol in supernatants was counted with scintillation counter (LS 6000SE, Beckman).

Assay [4] addresses T3, protein phosphatase 2A specific methyltransferase (MTase) (Homo sapiens, UniProt Q9UIC8).
T3 construct: His; made in house
Put plainly: PP2A methylation in 96-well plate format (methyltransferase activity). As to conditions: purified PP2A, MTase and [3H]-SAM; read-out: MT (IC50). Here is the method:
Purified PP2A, MTase and [^3H]-SAM, were incubated in reaction buffer at 37° C. At the end of the reaction, mixture was added onto the membranes of 96-well filter plate (Multiscreen™, Millipore). The membranes were then pre-wetted with 70% ethanol (50 μL/well) and then subsequently washed with water (2×200 μL/well). The reaction in each well was terminated and the proteins (5 μL-20 μL) were precipitated by adding 25% ice-cold TCA. The plate was kept on ice for 30 minutes to ensure completion of protein precipitation. Excess of the free SAM was then removed by washing with 5% cold TCA ([…]) and 70% cold ethanol (2×100 μL/well). Membranes were air-dried, radioactivity in each well was counted by TopCount^NXT scintillation counter (Packard) with 25 μL/well of Microsinct™ 20 (PerkinElmer).

[5] abbreviates: purified methylated PP2A and MEase, read-out: ME (IC50).

pIC50: −log10 of the molar value. Like-named read-outs stand apart in the source and are kept apart here.

T3 sequence (Q9UIC8 whole entry): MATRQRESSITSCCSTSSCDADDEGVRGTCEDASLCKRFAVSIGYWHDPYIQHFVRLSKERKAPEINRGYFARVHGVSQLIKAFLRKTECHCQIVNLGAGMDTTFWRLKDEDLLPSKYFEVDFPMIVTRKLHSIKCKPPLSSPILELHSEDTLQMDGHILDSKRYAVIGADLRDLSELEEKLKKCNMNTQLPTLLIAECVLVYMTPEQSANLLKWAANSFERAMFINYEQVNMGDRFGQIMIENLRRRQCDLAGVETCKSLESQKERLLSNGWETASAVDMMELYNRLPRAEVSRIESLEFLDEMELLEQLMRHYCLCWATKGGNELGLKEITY
T1 sequence (P67775 whole entry): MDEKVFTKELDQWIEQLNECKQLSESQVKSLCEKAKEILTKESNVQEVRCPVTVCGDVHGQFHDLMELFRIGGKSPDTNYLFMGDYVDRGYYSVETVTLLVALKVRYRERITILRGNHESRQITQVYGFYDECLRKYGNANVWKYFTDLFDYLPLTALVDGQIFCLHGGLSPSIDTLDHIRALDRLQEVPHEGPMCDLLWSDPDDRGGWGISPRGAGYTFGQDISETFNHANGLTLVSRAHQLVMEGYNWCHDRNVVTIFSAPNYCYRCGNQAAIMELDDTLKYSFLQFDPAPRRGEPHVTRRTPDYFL
T1 sequence (P30153 whole entry partner): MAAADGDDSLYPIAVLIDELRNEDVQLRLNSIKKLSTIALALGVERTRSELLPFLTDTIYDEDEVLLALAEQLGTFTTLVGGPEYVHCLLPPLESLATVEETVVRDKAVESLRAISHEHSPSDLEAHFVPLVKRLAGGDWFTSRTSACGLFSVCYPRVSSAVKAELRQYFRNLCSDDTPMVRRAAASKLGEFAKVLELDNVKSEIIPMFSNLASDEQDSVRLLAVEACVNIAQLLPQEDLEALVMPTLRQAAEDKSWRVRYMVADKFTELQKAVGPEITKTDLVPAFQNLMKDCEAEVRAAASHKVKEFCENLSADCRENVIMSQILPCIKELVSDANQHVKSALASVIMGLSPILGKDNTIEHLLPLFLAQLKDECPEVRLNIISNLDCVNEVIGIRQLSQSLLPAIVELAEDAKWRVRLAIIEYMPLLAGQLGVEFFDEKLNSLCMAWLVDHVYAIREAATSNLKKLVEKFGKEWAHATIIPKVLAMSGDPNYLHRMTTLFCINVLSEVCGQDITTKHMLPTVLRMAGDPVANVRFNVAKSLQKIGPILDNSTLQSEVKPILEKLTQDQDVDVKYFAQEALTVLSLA

Consider `CCCCCCCCCCCCCCCCCCCC(=O)NCCc1c[nH]c2ccc(F)cc12` [Compound I-35, N-[2-(5-fluoro-1H-indol-3-yl)ethyl]icosanamide], for which the negative-log IC50 (pIC50) on PP2A [1] was less than 4.00; on PP2A [2], 4.00 to 5.00; in assay [3] (setting [5]) it was greater than 5.00; in assay [4], greater than 5.00.
On to `CCCCCCCCCCCCCCCC(=O)NCCc1c[nH]c2ccc(O)cc12` [Compound I-76, N-(2-(5-hydroxy-1H-indol-3-yl)emyl)palmitamide], for which the negative logarithm of the IC50 (pIC50) (at PP2A [2]; in assay [3] (setting [5]); in assay [4]) was less than 4.00 each time.
Consider `CCCCCCCCCC(=O)NCCc1c[nH]c2ccc(O)cc12` [Compound I-77, N-(2-(5-hydroxy-1H-indol-3-yl)ethyl)decanamide], for which the negative-log IC50 (pIC50) (at PP2A [2]; in assay [3] (setting [5]); in assay [4]) was less than 4.00 throughout.
As for `CCCCCCCCCCCCCCCCNC(=O)NCCc1c[nH]c2ccc(O)cc12` [Compound I-30, 3-hexadecyl-1-[2-(5-hydroxy-1H-indol-3-yl)ethyl]urea], the negative-log IC50 (pIC50) at PP2A [1] is 4.00 to 5.00; on PP2A [2], 4.00 to 5.00; in assay [3] (setting [5]), greater than 5.00; in assay [4] it was 4.00 to 5.00.
On to `CCCCCCCCCCCCCCCCCCCC(=O)NCCc1c[nH]c2ccc(OC(C)=O)cc12` [Compound I-33, 3-(2-icosanamidoethyl)-1H-indol-5-yl acetate], for which the results for the negative-log IC50 (pIC50) (against PP2A [2]; in assay [3] (setting [5]); in assay [4]) were 4.00 to 5.00, greater than 5.00 and greater than 5.00, respectively.
For the compound `CCCCCCCCCCCCCCCCCCCC(=O)NCCc1c[nH]c2ccc(OC(=O)CCC(=O)O)cc12` [Compound I-32, 4-{[3-(2-icosanamidoethyl)-1H-indol-5-yl]oxy}-4-oxobutanoic acid], the negative logarithm of the IC50 (pIC50) on PP2A [1] is 4.00 to 5.00; on PP2A [2] it was 4.00 to 5.00; in assay [3] (setting [5]), greater than 5.00; in assay [4] it was greater than 5.00.
For `CCCCCCC(O)CCCCCCCCCCC(=O)NCCc1c[nH]c2ccc(O)cc12` (stereo not shown) [Compound I-29, 12-hydroxy-N-[2-(5-hydroxy-1H-indol-3-yl)ethyl] octadecanamide], the pIC50 against PP2A [1] was less than 4.00; against PP2A [2], greater than 5.00; in assay [3] (setting [5]) it was 4.00 to 5.00; in assay [4], 4.00 to 5.00.
As to `CCCCCCCCCCCCCCCCCC(=O)NCCc1c[nH]c2ccccc12` [Compound I-65, N-(2-(1H-indol-3-yl)ethyl)stearamide], the pIC50 at PP2A [1] was 4.00 to 5.00; at PP2A [2], less than 4.00; in assay [3] (setting [5]) it was greater than 5.00; in assay [4], greater than 5.00.
With `CCCCCCCCCCCCCCCCCC(=O)NCCc1c[nH]c2ccc(O)cc12` [Compound I-66, N-(2-(5-hydroxy-1H-indol-3-yl)ethyl)stearamide], the negative logarithm of the IC50 (pIC50) against PP2A [1] is less than 4.00; at PP2A [2] it was 4.00 to 5.00; in assay [3] (setting [5]) it was greater than 5.00; in assay [4], greater than 5.00.
For the compound `CCCCCCCCCCCCCCCCCCC(=O)NCCc1c[nH]c2ccc(O)cc12` [Compound I-67, N-(2-(5-hydroxy-1H-indol-3-yl)ethyl)nonadecanamide], the pIC50 on PP2A [1] was less than 4.00; against PP2A [2], 4.00 to 5.00; in assay [3] (setting [5]), less than 4.00.
Consider `CCCCCCCCCCCCCCCCCCNC(=O)NCCc1c[nH]c2ccc(O)cc12` [Compound I-31, 1-[2-(5-hydroxy-1H-indol-3-yl)ethyl]-3-octadecylurea], for which the pIC50 is 4.00 to 5.00 at PP2A [1], 4.00 to 5.00 against PP2A [2], greater than 5.00 in assay [3] (setting [5]) and 4.00 to 5.00 in assay [4].
On to `CCCCCCCCCCCCCCCCNC(=O)NC(Cc1c[nH]c2ccc(O)cc12)C(=O)O` (stereo not shown) [Compound I-78, 2-(3-hexadecylureido)-3-(5-hydroxy-1H-indol-3-yl)propanoic acid], for which the pIC50 is less than 4.00 at PP2A [2], greater than 5.00 in assay [3] (setting [5]) and greater than 5.00 in assay [4].
Take `CCCCCCCCCCCCCCCCNC(=O)C(Cc1c[nH]c2ccccc12)NC(=O)OC(C)(C)C` (stereo not shown) [Compound I-80, tert-butyl 1-(hexadecylamino)-3-(1H-indol-3-yl)-1-oxpopran-2-ylcarbamate]: the pIC50 is 4.00 to 5.00 against PP2A [2], greater than 5.00 in assay [3] (setting [5]) and greater than 5.00 in assay [4].
For the compound `CCCCCCCCCCCCCCCCCCCC(=O)NCCc1c[nH]c2ccccc12` [Compound I-64, N-(2-(1H-indol-3-yl)ethyl) icosanamide], the negative logarithm of the IC50 (pIC50) is 4.00 to 5.00 on PP2A [1], less than 4.00 against PP2A [2], greater than 5.00 in assay [3] (setting [5]) and greater than 5.00 in assay [4].
As for `CCCCCCCCCCCCCCCCCCNC(=O)Cc1c[nH]c2ccc(O)cc12` [Compound I-39, 2-(5-hydroxy-1H-indol-3-yl)-N-octadecylacetamide], the pIC50 was 4.00 to 5.00 against PP2A [1], 4.00 to 5.00 at PP2A [2], greater than 5.00 in assay [3] (setting [5]) and 4.00 to 5.00 in assay [4].
In the case of `CCCCCCCCCCCCCCCCCCNC(=O)NC(Cc1c[nH]c2ccc(O)cc12)C(=O)O` (stereo not shown) [Compound I-79, 3-(5-hydroxy-1H-indol-3-yl)-2-(3-octadecylureido)propanoic acid], the pIC50 was less than 4.00 at PP2A [2], 4.00 to 5.00 in assay [3] (setting [5]) and greater than 5.00 in assay [4].
For `CCCCCCCCCCCCCCCCCCCC(=O)NCCc1c[nH]c2ccc(C)cc12` [Compound I-36, N-[2-(5-methyl-1H-indol-3-yl)ethyl]icosanamide], the pIC50 is less than 4.00 against PP2A [1], 4.00 to 5.00 against PP2A [2], 4.00 to 5.00 in assay [3] (setting [5]) and greater than 5.00 in assay [4].
In the case of `CCCCCCCCCCCCCCCCCCCC(=O)N(C)CCc1c[nH]c2ccccc12` [Compound I-38, N-[2-(1H-indol-3-yl)ethyl]-N-methylicosanamide], the pIC50 (against PP2A [2]; in assay [3]; in assay [4]) was less than 4.00 in each case.

For the origin of these results see patent US10583119B2, “Compounds, compositions and methods for making the same” (Signum Biosciences, Inc., priority 2008, dated 2020).
